Experimental data as given in ChEMBL document CHEMBL5104160, “In vitro and in vivo neuroprotective effect of novel mPGES-1 inhibitor in animal model of Parkinson's disease” (Bioorg Med Chem Lett, 2022).
pEC50, pIC50: −log10 of the molar value. Activity calls are given as the source filed them. The calls are words filed in the database; no cut-off is given here.

What was measured:
RAW264.7 [1] = assay: Cytotoxicity against mouse RAW264.7 cells assessed as decrease in cell viability at 1 uM; format: toxicity, cell-based; conditions: raw264.7, 1 µM
[2] = Inhibition of PGE2 production in LPS-induced mouse RAW264.7 cells; format: functional, cell-based
Mus musculus [3] = assay: Neuroprotective effect in 6-OHDA-induced lesioned mouse model of Parkinson's disease assessed as decrease in time for locomotion activity at 80 mg/kg/day, po administered for 7 days measured by Pole test; format: functional, organism-based; conditions: time 7.0 day
Mus musculus [4] = assay: Neuroprotective effect in 6-OHDA-induced lesioned mouse model of Parkinson's disease assessed as decrease in time to turn at 80 mg/kg/day, po administered for 7 days measured by Pole test; format: functional, organism-based; conditions: time 7.0 day
Mus musculus [5] = assay: Neuroprotective effect in 6-OHDA-induced lesioned mouse model of Parkinson's disease assessed as increase in latency time at 1 mg/kg/day, ip administered for 7 days measured by rotarod test; format: functional, organism-based; conditions: time 7.0 day
PC-12 [6] = assay: Neuroprotective activity against 6-OHDA-induced cytotoxicity in rat PC-12 cells measured after 3 hrs by MTT assay; format: functional; conditions: read-out: ED50 (the source's name)
Blood = assay: Inhibition of PGE2 production in LPS-induced human whole blood; format: functional, tissue-based
PC-12 [7] = assay: Neuroprotective activity against 6-OHDA-induced cytotoxicity in rat PC-12 cells at 10 uM measured after 12 hrs by MTT assay; format: functional, cell-based
Mus musculus [8] = assay: Neuroprotective activity against in 6-OHDA-induced neurotoxicity in mouse assessed as increase in tyrosine hydroxylase (TH)-positive neurons in substantia nigra pars compacta of brain at 1 mg/kg/day, ip administered for 7 days measured by immunohistochemistry analysis; format: functional, organism-based; conditions: time 7.0 day
Mus musculus [9] = assay: Neuroprotective effect in 6-OHDA-induced lesioned mouse model of Parkinson's disease assessed as decrease in time to turn at 1 mg/kg/day, ip administered for 7 days measured by Pole test; format: functional, organism-based; conditions: time 7.0 day
Prostaglandin E synthase = biological target: T1, Prostaglandin E synthase (Homo sapiens, UniProt O14684); assay: Inhibition of human mPGES-1 assessed as reduction in PGE2 production
T1 sequence (O14684 whole entry): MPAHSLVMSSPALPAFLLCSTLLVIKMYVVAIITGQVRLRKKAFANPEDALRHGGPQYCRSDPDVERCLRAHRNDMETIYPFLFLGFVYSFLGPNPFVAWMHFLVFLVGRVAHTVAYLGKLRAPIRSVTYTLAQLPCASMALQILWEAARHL

RAW264.7 [10] = assay: Cytotoxicity against mouse RAW264.7 cells assessed as decrease in cell viability at 100 to 1000 nM; format: toxicity, cell-based; conditions: raw264.7, 1 µM, dose 100-1000 nM
Mus musculus [11] = assay: Neuroprotective effect in 6-OHDA-induced lesioned mouse model of Parkinson's disease assessed as decrease in falling frequency at 1 mg/kg/day, ip administered for 7 days measured by rotarod test; format: functional, organism-based; conditions: time 7.0 day
Mus musculus [12] = assay: Neuroprotective activity against in 6-OHDA-induced neurotoxicity in mouse assessed as increase in tyrosine hydroxylase (TH)-positive fibers in striatum of brain at 1 mg/kg/day, ip administered for 7 days measured by immunohistochemistry analysis; format: functional, organism-based; conditions: time 7.0 day
A549 = assay: Inhibition of PGE2 production in IL-1beta-induced human A549 cells assessed as decrease in PGE2 production measured after 24 hrs by enzyme immunoassay; format: functional, cell-based; conditions: A549, 24 h
Mus musculus [13] = assay: Neuroprotective effect in 6-OHDA-induced lesioned mouse model of Parkinson's disease assessed as decrease in time for locomotion activity at 1 mg/kg/day, ip administered for 7 days measured by Pole test; format: functional, organism-based; conditions: time 7.0 day

SMILES | pIC50 [2] | Activity (RAW264.7 [1]) | further results
Cc1ccc(S(=O)(=O)N(Nc2ccccc2)C(=O)Oc2cccc3c2CCC3)cc1 | 6.40 | Non-Toxic | –
N[C@@H](Cc1ccc(O)c(O)c1)C(=O)O | – | – | Activity (Mus musculus [3]): Active; Activity (Mus musculus [4]): Active
O=C(Oc1ccc(OCc2ccccc2)cc1)N(Nc1ccccc1)S(=O)(=O)c1ccc(-c2ccccc2)cc1 | 7.03 | Non-Toxic | –
O=C(Oc1ccc(Oc2ccccc2)cc1)N(Nc1ccccc1)S(=O)(=O)c1ccc(-c2ccccc2)cc1 | 6.79 | Non-Toxic | –
O=C(Oc1ccccc1)N(Nc1ccccc1)S(=O)(=O)c1ccc(Br)cc1 | – | Non-Toxic | –
CC(C)(C)c1ccc(S(=O)(=O)N(Nc2ccccc2)C(=O)Oc2ccc(OCc3ccccc3)cc2)cc1 | – | Non-Toxic | –
Cc1cc(C)c(S(=O)(=O)N(Nc2ccccc2)C(=O)Oc2cccc3c2CCC3)c(C)c1 | 6.50 | Non-Toxic | –
O=C(Oc1ccccc1)N(Nc1ccccc1)S(=O)(=O)c1ccc(F)cc1 | – | Non-Toxic | –
O=C(Oc1cccc2c1CCC2)N(Nc1ccccc1)S(=O)(=O)c1ccc(C(F)(F)F)cc1 | 6.61 | Non-Toxic | –
Cc1cc(C)c(S(=O)(=O)N(Nc2ccccc2)C(=O)Oc2ccc(OCc3ccccc3)cc2)c(C)c1 | – | Non-Toxic | –

Now from value to compound, other results behind:

pIC50 [2] | SMILES | Activity (RAW264.7 [1]) | further results
7.33 | O=C(Oc1ccc(OCc2ccccc2)cc1)N(Nc1ccccc1)S(=O)(=O)c1ccc(C(F)(F)F)cc1 | Non-Toxic | –
6.00 | Cc1ccccc1NN(C(=O)Oc1ccccc1)S(=O)(=O)c1ccccc1 | Non-Toxic | –
< 6.00 | Cc1ccccc1NN(C(=O)Oc1ccccc1)S(=O)(=O)c1ccc(Cl)cc1 | Non-Toxic | –
7.38 | O=C(Oc1ccc(OCc2ccccc2)cc1)N(Nc1cccc(Cl)c1)S(=O)(=O)c1ccc(Cl)cc1 | Non-Toxic | Activity (Mus musculus [5]): Active; pEC50 (PC-12 [6]): 8.52; pIC50 (Blood): 6.37; Activity (PC-12 [7]): Active; Activity (Mus musculus [8]): Active; Activity (Mus musculus [9]): Active; pIC50 (Prostaglandin E synthase): 8.94; Activity (RAW264.7 [10]): Non-Toxic; Activity (Mus musculus [11]): Active; Activity (Mus musculus [12]): Active; pIC50 (A549): 6.84; Activity (Mus musculus [13]): Active
6.09 | Cc1cccc(NN(C(=O)Oc2ccc([N+](=O)[O-])cc2)S(=O)(=O)c2ccc(Cl)cc2)c1 | Non-Toxic | –
6.12 | O=C(Oc1ccc([N+](=O)[O-])cc1)N(Nc1cccc(Cl)c1)S(=O)(=O)c1ccc(Cl)cc1 | Non-Toxic | –
6.19 | O=C(Oc1ccc([N+](=O)[O-])cc1)N(Nc1ccc(Cl)cc1)S(=O)(=O)c1ccc(Cl)cc1 | Non-Toxic | –
6.37 | O=C(Oc1cccc2c1CCC2)N(Nc1ccccc1)S(=O)(=O)c1ccc(Cl)cc1 | Non-Toxic | –
7.23 | O=C(Oc1ccc(OCc2ccccc2)cc1)N(Nc1ccccc1)S(=O)(=O)c1ccc(Cl)cc1 | Non-Toxic | –
6.75 | Cc1cc(C)c(S(=O)(=O)N(Nc2ccccc2)C(=O)Oc2ccc(Oc3ccccc3)cc2)c(C)c1 | Non-Toxic | –
6.36 | CCc1ccc(S(=O)(=O)N(Nc2ccccc2)C(=O)Oc2ccc(Oc3ccccc3)cc2)cc1 | Non-Toxic | –
